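How tested: cells in 96-well plates exposed to compound for 48 hours at five concentrations. GI50: concentration for 50% inhibition of growth. TGI marks complete inhibition of growth.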
Experiments:
Experiment in all cases: NCI-60 cell line screen, 48 h
786-0 renal = tested on: 786-0 renal
A549 NSCLC = tested on: A549 NSCLC
BT-549 breast = tested on: BT-549 breast
CAKI-1 renal = tested on: CAKI-1 renal
COLO 205 colon = tested on: COLO 205 colon
DU-145 prostate = tested on: DU-145 prostate
EKVX NSCLC = tested on: EKVX NSCLC
HCT-116 colon = tested on: HCT-116 colon
HCT-15 colon = tested on: HCT-15 colon
HL-60(TB) leukemia = tested on: HL-60(TB) leukemia
HOP-62 NSCLC = tested on: HOP-62 NSCLC
HOP-92 NSCLC = tested on: HOP-92 NSCLC
HS 578T breast = tested on: HS 578T breast
IGROV1 ovarian = tested on: IGROV1 ovarian
K-562 leukemia = tested on: K-562 leukemia
KM12 colon = tested on: KM12 colon
LOX IMVI melanoma = tested on: LOX IMVI melanoma
M14 melanoma = tested on: M14 melanoma
MCF7 breast = tested on: MCF7 breast
MDA-MB-231 breast = tested on: MDA-MB-231 breast
MDA-MB-435 = tested on: MDA-MB-435
NCI-H23 lung = tested on: NCI-H23 lung
NCI-H460 lung = tested on: NCI-H460 lung
OVCAR-3 ovarian = tested on: OVCAR-3 ovarian
OVCAR-4 ovarian = tested on: OVCAR-4 ovarian
OVCAR-5 ovarian = tested on: OVCAR-5 ovarian
OVCAR-8 ovarian = tested on: OVCAR-8 ovarian
PC-3 prostate = tested on: PC-3 prostate
RPMI-8226 leukemia = tested on: RPMI-8226 leukemia
SF-268 CNS = tested on: SF-268 CNS
SF-295 CNS = tested on: SF-295 CNS
SF-539 CNS = tested on: SF-539 CNS
SK-MEL-2 melanoma = tested on: SK-MEL-2 melanoma
SK-MEL-28 melanoma = tested on: SK-MEL-28 melanoma
SK-MEL-5 melanoma = tested on: SK-MEL-5 melanoma
SK-OV-3 ovarian = tested on: SK-OV-3 ovarian
SNB-19 CNS = tested on: SNB-19 CNS
SR leukemia = tested on: SR leukemia
SW-620 colon = tested on: SW-620 colon
T-47D breast = tested on: T-47D breast
TK-10 renal = tested on: TK-10 renal
U251 CNS = tested on: U251 CNS
UACC-257 melanoma = tested on: UACC-257 melanoma
UACC-62 melanoma = tested on: UACC-62 melanoma
UO-31 renal = tested on: UO-31 renal

For `CN(/N=N/c1nc(OCc2ccccc2)c2[nH]cnc2n1)C(=O)Oc1ccc([N+](=O)[O-])cc1`, the GI50 (786-0 renal) was 8.76 µM, the TGI (786-0 renal) was 23.7 µM and the GI50 (A549 NSCLC) was 12 µM. The TGI (A549 NSCLC) was 31.6 µM, the GI50 (BT-549 breast) was 7.35 µM and the TGI (BT-549 breast) was 20.4 µM. It also gave a GI50 (CAKI-1 renal) of 10.9 µM, a TGI (CAKI-1 renal) of 35.4 µM and a GI50 (COLO 205 colon) of 10.2 µM. It also gave a TGI (COLO 205 colon) of 29.7 µM, a GI50 (DU-145 prostate) of 9.02 µM and a TGI (DU-145 prostate) of 19.5 µM. For the same compound, the GI50 (EKVX NSCLC) was 11.5 µM, the TGI (EKVX NSCLC) was 35.9 µM and the GI50 (HCT-116 colon) was 8.68 µM. It also gave a TGI (HCT-116 colon) of 16 µM, a GI50 (HCT-15 colon) of 8.9 µM and a TGI (HCT-15 colon) of 20 µM. For the same compound, the GI50 (HL-60(TB) leukemia) was 11.9 µM, the TGI (HL-60(TB) leukemia) was greater than 50 µM and the GI50 (HOP-62 NSCLC) was 28.8 µM. The TGI (HOP-62 NSCLC) was greater than 50 µM, the GI50 (HOP-92 NSCLC) was 7.17 µM and the TGI (HOP-92 NSCLC) was 26.6 µM. The GI50 (HS 578T breast) was 8.61 µM, the TGI (HS 578T breast) was 29.6 µM and the GI50 (IGROV1 ovarian) was 12.2 µM. The TGI (IGROV1 ovarian) was 31.2 µM, the GI50 (K-562 leukemia) was 11.9 µM and the TGI (K-562 leukemia) was greater than 50 µM. For the same compound, the GI50 (KM12 colon) was 8.49 µM, the TGI (KM12 colon) was 18.7 µM and the GI50 (LOX IMVI melanoma) was 1.14 µM. The TGI (LOX IMVI melanoma) was 10.8 µM, the GI50 (M14 melanoma) was 8.87 µM and the TGI (M14 melanoma) was 18.4 µM. It also gave a GI50 (MCF7 breast) of 12.4 µM, a TGI (MCF7 breast) greater than 50 µM and a GI50 (MDA-MB-231 breast) of 5.78 µM. For the same compound, the TGI (MDA-MB-231 breast) was 18.6 µM, the GI50 (MDA-MB-435) was 12.4 µM and the TGI (MDA-MB-435) was 39.8 µM. For the same compound, the GI50 (NCI-H23 lung) was 8.44 µM, the TGI (NCI-H23 lung) was 16.4 µM and the GI50 (NCI-H460 lung) was 6.71 µM. It also gave a TGI (NCI-H460 lung) of 31.3 µM, a GI50 (OVCAR-3 ovarian) of 9.49 µM and a TGI (OVCAR-3 ovarian) of 24.4 µM. The GI50 (OVCAR-4 ovarian) was 22.8 µM, the TGI (OVCAR-4 ovarian) was greater than 50 µM and the GI50 (OVCAR-5 ovarian) was 11.5 µM. The TGI (OVCAR-5 ovarian) was greater than 50 µM, the GI50 (OVCAR-8 ovarian) was 9.81 µM and the TGI (OVCAR-8 ovarian) was 26.3 µM. It also gave a GI50 (PC-3 prostate) of 10.8 µM, a TGI (PC-3 prostate) of 27.1 µM and a GI50 (RPMI-8226 leukemia) of 9.12 µM. The TGI (RPMI-8226 leukemia) was greater than 50 µM, the GI50 (SF-268 CNS) was 9.44 µM and the TGI (SF-268 CNS) was 29.5 µM. It also gave a GI50 (SF-295 CNS) of 11.1 µM, a TGI (SF-295 CNS) of 33.6 µM and a GI50 (SF-539 CNS) of 9.88 µM. The TGI (SF-539 CNS) was 28.8 µM, the GI50 (SK-MEL-2 melanoma) was 11.9 µM and the TGI (SK-MEL-2 melanoma) was 28.5 µM. The GI50 (SK-MEL-28 melanoma) was 12.4 µM, the TGI (SK-MEL-28 melanoma) was greater than 50 µM and the GI50 (SK-MEL-5 melanoma) was 6.89 µM. It also gave a TGI (SK-MEL-5 melanoma) of 16.3 µM, a GI50 (SK-OV-3 ovarian) of 10.4 µM and a TGI (SK-OV-3 ovarian) of 28.6 µM. For the same compound, the GI50 (SNB-19 CNS) was 9.6 µM, the TGI (SNB-19 CNS) was 27.9 µM and the GI50 (SR leukemia) was 26.1 µM. It also gave a TGI (SR leukemia) greater than 50 µM, a GI50 (SW-620 colon) of 9.02 µM and a TGI (SW-620 colon) of 26.1 µM. It also gave a GI50 (T-47D breast) of 14.2 µM, a TGI (T-47D breast) of 32.7 µM and a GI50 (TK-10 renal) of 12 µM. It also gave a TGI (TK-10 renal) of 34 µM, a GI50 (U251 CNS) of 7.51 µM and a TGI (U251 CNS) of 15.3 µM. It also gave a GI50 (UACC-257 melanoma) of 39 µM, a TGI (UACC-257 melanoma) greater than 50 µM and a GI50 (UACC-62 melanoma) of 7.5 µM. It also gave a TGI (UACC-62 melanoma) of 15.2 µM, a GI50 (UO-31 renal) of 6.58 µM and a TGI (UO-31 renal) of 13.9 µM.
